Measured values taken from patent publication US20070167492A1, “Molluscicidal agents” (priority 2003, published 2007).

Tests used:
[1] = tested on: Winter wheat (Kampa race) seeds; assay: Seed germination test of treated winter wheat seeds (rolled in paper); assay type: in vivo; conditions: 3x50 seeds, 6 days at 22° C.
Outline: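 Seeds were disinfected with fludioxonil-containing Beret Gold (2 ml per kg seed) and coated with Sepiret® for formulations unsuitable for coating. Germination of 3×50 seeds rolled in paper was scored after 6 days at continuous 22° C. under a 16 hours light regime.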

[2] = tested on: Deroceras reticulatum (grey field slug); assay: Example 2: pot re-test, treated winter wheat seed with 5 adult slugs per pot, 7 days; assay type: in vivo; conditions: for number of fecal pellets per pot relative to the untreated control / plants present relative to the untreated seed: after 2, 3 and 7 days; for number of damaged seeds relative to the untreated seed: two days after the start
Outline: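 Pots sown with 40 treated winter wheat seeds on quartz sand over potting soil, each given 5 adult grey field slugs, kept at 18-19° C, ~95% RH, ~18 h light, no overhead irrigation; 4 replicates. Damaged seeds, intact plants, dead slugs and fecal pellets counted at 2, 3, 7 days; F-tests and Student tests.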

[3] = Example 2, 8 ml formulated per kg seed, 2 days after sowing
[4] = Example 2, 8 ml formulated per kg seed, 3 days after sowing
[5] = Example 2, 8 ml formulated per kg seed, 7 days after sowing
[6] = Example 2, 12 ml formulated per kg seed, 2 days after sowing
[7] = Example 2, 12 ml formulated per kg seed, 3 days after sowing
[8] = Example 2, 12 ml formulated per kg seed, 7 days after sowing
[9] = Example 2, 2 ml formulated per kg seed, 2 days after sowing
[10] = Example 2, 2 ml formulated per kg seed, 3 days after sowing
[11] = Example 2, 2 ml formulated per kg seed, 7 days after sowing
[12] = Example 2, 4 ml formulated per kg seed, 2 days after sowing
[13] = Example 2, 4 ml formulated per kg seed, 3 days after sowing
[14] = Example 2, 4 ml formulated per kg seed, 7 days after sowing
[15] = Example 2, 10 ml formulated per kg seed, 2 days after sowing
[16] = Example 2, 10 ml formulated per kg seed, 3 days after sowing
[17] = Example 2, 10 ml formulated per kg seed, 7 days after sowing
[18] = Example 2, 3.8 ml formulated per kg seed, 2 days after sowing
[19] = Example 2, 3.8 ml formulated per kg seed, 3 days after sowing
[20] = Example 2, 3.8 ml formulated per kg seed, 7 days after sowing

## O=[N+]([O-])NC1=NCCN1Cc1ccc(Cl)nc1 [imidacloprid]
[1]; 2 ml formulated per kg seed
  Percentage germinated: 78%
[1]; 4 ml formulated per kg seed
  Percentage germinated: 89%
[1]; 8 ml formulated per kg seed
  Percentage germinated: 71%
[1]; 12 ml formulated per kg seed
  Percentage germinated: 77%
[2]; Example 2
  result of seed treatment against slugs (conclusion): acceptable result
  number of fecal pellets per pot relative to the untreated control: significant reduction in the number of fecal pellets
  plants present relative to the untreated seed: significantly more plants present
  number of damaged seeds relative to the untreated seed: significant reduction in the number of damaged seeds
[2]; Example 2, 8 ml formulated per kg seed
  percentage of damaged seeds after 7 days: 23%
[2]; [3]
  Mean number of damaged seeds per pot: 4.8
  Mean number of dead slugs per pot: 0
[2]; [4]
  Mean number of damaged seeds per pot: 9.0
  Mean number of dead slugs per pot: 0
[2]; [5]
  Mean number of damaged seeds per pot: 9.0
  Mean number of dead slugs per pot: 1.0
[2]; Example 2, 12 ml formulated per kg seed
  percentage of damaged seeds after 7 days: 12%
[2]; [6]
  Mean number of damaged seeds per pot: 1.8
  Mean number of dead slugs per pot: 0
[2]; [7]
  Mean number of damaged seeds per pot: 3.8
  Mean number of dead slugs per pot: 0
[2]; [8]
  Mean number of damaged seeds per pot: 4.8
  Mean number of dead slugs per pot: 0.8
[2]; dosage 8 ml, 2 days
  Mean number of fecal pellets per pot: 6
  Mean number of plants present per pot: 7.8
[2]; dosage 8 ml, 3 days
  Mean number of fecal pellets per pot: 17
  Mean number of plants present per pot: 12.3
[2]; dosage 8 ml, 7 days
  Mean number of fecal pellets per pot: 29
  Mean number of plants present per pot: 18.3
  number of utilizable plants after 7 days: 13.5
[2]; dosage 12 ml, 2 days
  Mean number of fecal pellets per pot: 3
  Mean number of plants present per pot: 16.0
[2]; dosage 12 ml, 3 days
  Mean number of fecal pellets per pot: 17
  Mean number of plants present per pot: 24.5
[2]; dosage 12 ml, 7 days
  Mean number of fecal pellets per pot: 28
  Mean number of plants present per pot: 28.3
  number of utilizable plants after 7 days: 22.8

## O=CC=Cc1ccccc1 [cinnamaldehyde]
[1]; 2 ml formulated per kg seed
  Percentage germinated: 25%
[1]; 4 ml formulated per kg seed
  Percentage germinated: 0%
[1]; 10 ml formulated per kg seed
  Percentage germinated: 0%
[2]; Example 2
  fecal pellets in comparison to the control: equal number of fecal pellets
  number of plants present relative to untreated: no significantly different results
  phytotoxic effect on the seeds: phytotoxic effect on the seeds
  reduction of damaged seeds relative to the untreated control: more than 50%
  result of seed treatment against slugs (conclusion): does not result in the desired effect
  number of damaged seeds relative to the untreated seed: significant reduction in the number of damaged seeds
[2]; Example 2, 2 ml formulated per kg seed
  percentage of damaged seeds after 7 days: 63%
[2]; [9]
  Mean number of damaged seeds per pot: 8.8
  Mean number of dead slugs per pot: 0
[2]; [10]
  Mean number of damaged seeds per pot: 15.0
  Mean number of dead slugs per pot: 0
[2]; [11]
  Mean number of damaged seeds per pot: 25.0
  Mean number of dead slugs per pot: 0.5
[2]; Example 2, 4 ml formulated per kg seed
  percentage of damaged seeds after 7 days: 36%
[2]; [12]
  Mean number of damaged seeds per pot: 5.0
  Mean number of dead slugs per pot: 0
[2]; [13]
  Mean number of damaged seeds per pot: 8.8
  Mean number of dead slugs per pot: 0
[2]; [14]
  Mean number of damaged seeds per pot: 14.3
  Mean number of dead slugs per pot: 0.8
[2]; Example 2, 10 ml formulated per kg seed
  percentage of damaged seeds after 7 days: 39%
[2]; [15]
  Mean number of damaged seeds per pot: 6.0
  Mean number of dead slugs per pot: 0
[2]; [16]
  Mean number of damaged seeds per pot: 10.5
  Mean number of dead slugs per pot: 0
[2]; [17]
  Mean number of damaged seeds per pot: 15.8
  Mean number of dead slugs per pot: 0.5
[2]; dosage 2 ml, 2 days
  Mean number of fecal pellets per pot: 45
  Mean number of plants present per pot: 0
[2]; dosage 2 ml, 3 days
  Mean number of fecal pellets per pot: 91
  Mean number of plants present per pot: 0
[2]; dosage 2 ml, 7 days
  Mean number of fecal pellets per pot: 124
  Mean number of plants present per pot: 0
  number of utilizable plants after 7 days: 0
[2]; dosage 4 ml, 2 days
  Mean number of fecal pellets per pot: 28
  Mean number of plants present per pot: 0
[2]; dosage 4 ml, 3 days
  Mean number of fecal pellets per pot: 58
  Mean number of plants present per pot: 0
[2]; dosage 4 ml, 7 days
  Mean number of fecal pellets per pot: 82
  Mean number of plants present per pot: 0
  number of utilizable plants after 7 days: 0
[2]; dosage 10 ml, 2 days
  Mean number of fecal pellets per pot: 42
  Mean number of plants present per pot: 0
[2]; dosage 10 ml, 3 days
  Mean number of fecal pellets per pot: 77
  Mean number of plants present per pot: 0
[2]; dosage 10 ml, 7 days
  Mean number of fecal pellets per pot: 91
  Mean number of plants present per pot: 0
  number of utilizable plants after 7 days: 0

## CC1OC(C)OC(C)OC(C)O1 (centres unmarked) [metaldehyde]
[1]; 3.8 ml formulated per kg seed
  Percentage germinated: 56%
[1]; 7.5 ml formulated per kg seed
  Percentage germinated: 31%
[1]; 11 ml formulated per kg seed
  Percentage germinated: 48%
[1]; 15 ml formulated per kg seed
  Percentage germinated: 8%
[2]; Example 2
  dead slugs observed during the course of the experiment: More dead slugs
  result of seed treatment against slugs (conclusion): good action against slugs
  number of fecal pellets per pot relative to the untreated control: significant reduction in the number of fecal pellets
  plants present relative to the untreated seed: significantly more plants present
  number of damaged seeds relative to the untreated seed: significant reduction in the number of damaged seeds
[2]; Example 2, 3.8 ml formulated per kg seed
  percentage of damaged seeds after 7 days: 1%
[2]; [18]
  Mean number of damaged seeds per pot: 0.5
  Mean number of dead slugs per pot: 0.5
[2]; [19]
  Mean number of damaged seeds per pot: 0.3
  Mean number of dead slugs per pot: 0.8
[2]; [20]
  Mean number of damaged seeds per pot: 0.3
  Mean number of dead slugs per pot: 3.0
[2]; dosage 3.8 ml, 2 days
  Mean number of fecal pellets per pot: 0
  Mean number of plants present per pot: 20.8
[2]; dosage 3.8 ml, 3 days
  Mean number of fecal pellets per pot: 0
  Mean number of plants present per pot: 32.5
[2]; dosage 3.8 ml, 7 days
  Mean number of fecal pellets per pot: 5
  Mean number of plants present per pot: 35.8
  number of utilizable plants after 7 days: 34.3
